How the values were obtained:
[1] = system: parental LOX and LOXARF6-GTP cells; test: Microvesicle shedding: microvesicles released into media isolated and quantitated for protein, or surface microvesicles scored; format: cell-based
Experimental: Data from 5 independent experiments is plotted. Standard error bars are shown.
(§1) Standard error bars are shown.
Released microvesicles were isolated and quantitated for protein. The average of three independent experiments with standard error bars for each experimental condition is shown.
Parental LOX and LOXARF6-GTP were treated with 10 μM ML-7 for 2 hrs. Microvesicles released were isolated, quantitated for protein, and the data is shown as fold change in shedding relative to untreated LOX cells.
The total protein content of lysed microvesicles can be calculated, for example by using the Bradford assay (BioRad). This assay utilizes a spectroscopic analysis procedure to measure the concentration of protein in a solution.

LOX cells = conditions: cells expressing constitutively activated MEK; 1-butanol
Text: Next, the role of phospho-ERK levels in microvesicle shedding was investigated. Specifically, microvesicle shedding was examined in LOXARF6-GDP cells after phospho-ERK levels were restored, or after stimulating PLD activity through pathways independent of ARF6. […] Finally, the effect of 1-butanol on microvesicle shedding induced by expression of constitutively activated MEK was investigated.

ERK = conditions: cells treated with 1-butanol
Experimental: Studies have shown that ARF6 stimulates phospholipase D (PLD) activity (C. D'Souza-Schorey et al., Nat. Rev. Mol. Cell Biol. 7, 347-58 (2006)). […] Here, ARF6 regulated PLD activity and its involvement with ERK activation was tested. First, phospho-ERK levels upon PLD inactivation were examined. […] Next, primary alcohols were used to inhibit PLD, which results in the formation of phosphatidylalcohol at the expense of phosphatidic acid by replacing water.

phospho-MLC [2] = test: Phospho-MLC in cell lysates by western blotting, parental LOX and LOXARF6-GTP cells; format: cell-based
Experimental: Additional lanes on the immunoblot between lanes 2 and 3 were spliced out. Band density was measured by densitometric scanning.
(§2) Cell lines as indicated were treated with ML-7, and cell lysates were probed for phospho-MLC and α-tubulin by Western blotting. Band density was measured by densitometric scanning. Fold increase in the ratio of phospho-MLC to α-tubulin in ML-7 treated cells relative to untreated cells is shown.
Lysates of parental LOX and LOXARF6-GTP treated with Go6976 […] for 2 hrs at 37° C. were probed for phospho-MLC and α-tubulin by Western blotting.

phospho-MLC [3] = test: Phospho-MLC in cell lysates by western blotting, LOXARF6-GDP cells; format: cell-based; conditions: Go6976 10 μM, ML-7 10 μM, U0126 30 μM for 2 hrs at 37° C.
Experimental: Cell lysates were probed for phospho-MLC, phospho-ERK and α-tubulin by western blotting.
as §2

PC3 and SW480 cell lines = conditions: MEK inhibition
Text: Vesicle shedding was examined in other tumor cell lines; SW480, a colon carcinoma cell line, PC3, a prostate adenocarcinoma cell line, and MDA-MB-231, an invasive breast tumor cell line.

LOXARF6-GDP cells = test: Microvesicle shedding, cells with microvesicles at the cell surface scored; format: cell-based; conditions: LOXARF6-GDP cells treated with propranolol or atenolol
Text: as §1
The treated cells were visualized, and those with microvesicles present at the cell surface were scored as described above.

phospho-ERK = test: Phospho-ERK and total-ERK in cell lysates, western blotting with densitometry; format: cell-based; conditions: LOXARF6-GDP cells; propranolol (0.1 mM), atenolol (10 uM)
Text: The treated cells were probed for phospho-ERK and total-ERK. Band intensities were quantified by densitometry. The average of 3 independent experiments is plotted and standard error bars are shown.

cleaved caspase 3 = test: Cleaved caspase 3 as sign of apoptosis; format: cell-based; conditions: cells treated with okadaic acid, compared with LOX cells expressing mutant ARF6
[4] = LOX cells treated with blebbistatin or latrunculin A

CCCCO [1-butanol]
microvesicle shedding ([1]; LOX cells, 0.3% 1-butanol for 30 min, cells with eight or more surface microvesicles scored): inhibits | microvesicle shedding induced by constitutively activated MEK (LOX cells): little to no effect | ERK activation (ERK): inhibits

Cn1c2ccccc2c2c3c(c4c5ccccc5n(CCC#N)c4c21)CNC3=O [Go6976]
phospho-MLC levels (phospho-MLC [2]; Go6976 for 2 hrs at 37° C.): no decrease | phospho-MLC levels / MLC phosphorylation (phospho-MLC [3]): decreased

O=S(=O)(c1cccc2c(I)cccc12)N1CCCNCC1 [ML-7]
MLC phosphorylation (phospho-MLC [2]; 10 μM ML-7 for 2 hrs): blocked | microvesicle shedding ([1]; parental LOX and LOXARF6-GTP cells, 10 μM ML-7 for 2 hrs): blocks | phospho-MLC levels / MLC phosphorylation (phospho-MLC [3]; listed as ML7): little to no effect

N#CC(=C(/N)Sc1ccccc1N)/C(C#N)=C(\N)Sc1ccccc1N [U0126]
phospho-MLC levels (phospho-MLC [2]; U0126 (30 μM)): inhibition of phospho-MLC was evident | basal as well as ARF6-GTP enhanced microvesicle shedding [1]: significant inhibition | microvesicle shedding (PC3 and SW480 cell lines): blocked microvesicle shedding | phospho-MLC levels / MLC phosphorylation (phospho-MLC [3]): no inhibition

CC(C)NCC(O)COc1ccc(CC(N)=O)cc1 (centres unmarked) [atenolol]
microvesicle shedding / release (LOXARF6-GDP cells): did not have any effect | phospho-ERK levels (phospho-ERK): did not have any effect

Cc1ccc2c(c1)C(=O)C1(O)CCN(c3ccccc3)C1=N2 (centres unmarked) [blebbistatin]
microvesicle formation ([1]; LOX cells in the presence of blebbistatin): microvesicles do not form | microvesicle shedding [1, 4]: profoundly affected microvesicle shedding

C/C1=C/C(=O)O[C@@H]2C[C@@H](CC[C@H](C)/C=C\C=C\CC1)O[C@@](O)([C@@H]1CSC(=O)N1)C2 [latrunculin A]
microvesicle shedding [1, 4]: profoundly affected microvesicle shedding | treated cells exhibiting clustered microvesicles at the cell surface ([1]; LOX cells treated with latrunculin A): 85-90% | release of microvesicles ([1]; parental LOX and LOXARF6-GTP cells, 2 μM Latrunculin A for 45 min, released microvesicles quantitated for protein): inhibited

C=C1[C@@H](O)[C@@H]2O[C@]3(CC[C@H](/C=C/[C@@H](C)[C@@H]4CC(C)=C[C@@]5(O[C@H](C[C@@](C)(O)C(=O)O)CC[C@H]5O)O4)O3)CC[C@H]2O[C@@H]1[C@@H](O)C[C@H](C)[C@H]1O[C@@]2(CCCCO2)CC[C@H]1C [okadaic acid]
cleaved caspase 3 in cells (cleaved caspase 3): present in a higher proportion of the cells

CC(C)NCC(O)COc1cccc2ccccc12 (centres unmarked) [propranolol]
microvesicle shedding / release (LOXARF6-GDP cells): induced microvesicle shedding | microvesicle shedding / release (LOXARF6-GDP cells; listed as Propranolol): restored vesicle shedding | phospho-ERK levels (phospho-ERK): restored phospho-ERK levels

— patent publication US9329188B2, “Method for detecting invasive microvesicles derived from tumor cells” (University of Notre Dame, priority 2010, dated 2016)
